Source: the supplement of paper PMC4862054
Where “and” joins values, the source holds several entries; their conditions need not be identical. Equal values may be shown once. Each block holds one molecule with its values, some of them ahead of it.

Experiments:
[1] = system: HCC1599; details: 72 h
Summary of the method: (§1)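 Breast cancer cell lines in 20 µl suspension were added to 384-well plates already holding compound at 5 concentrations, spaced in 10-fold steps across a compound-specific 10,000-fold range, and incubated for 72 h. CellTox Green fluorescence (485/520 nm) was read first to measure cell death, followed by CellTiter-Glo luminescence for viability after 10 min at room temperature. Each plate was normalised to 0.1 % DMSO and a positive kill control. EC50 values came from dose-response curve fits and were censored at the top concentration.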

[2] = system: CAL-148; details: 72 h
Summary of the method: as §1

[3] = system: HCC1143; details: 72 h
Summary of the method: as §1

[4] = system: HDQ-P1; details: 72 h
Summary of the method: as §1

[5] = system: MFM-223; details: 72 h
Summary of the method: as §1

[6] = system: DU-4475; details: 72 h
Summary of the method: as §1

[7] = system: CAL-85-1; details: 72 h
Summary of the method: (§2)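 To measure viability, fluorescence at 560/590 nm was read after 2.5 µl CellTiter-Blue had been added for 2 h at 37 °C. Cells from breast cancer lines had been seeded in 20 µl suspension onto 384-well plates pre-loaded with compound dissolved in 5 µl medium and kept for 72 h. EC50 comes from a fitted percent-inhibition dose-response curve censored at the highest concentration, after per-plate normalisation to vehicle and a positive kill control, Z'-factor checks, and removal of rows with zero drug sensitivity score.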

[8] = system: CAL-148; details: 72 h; remark: listed apart in the source
Summary of the method: as §2

[9] = system: CAL-51; details: 72 h
Summary of the method: as §2

[10] = system: HDQ-P1; details: 72 h; remark: listed apart in the source
Summary of the method: as §2

[11] = system: DU-4475; details: 72 h; remark: listed apart in the source
Summary of the method: as §2

[12] = system: HCC1599; details: 72 h; remark: listed apart in the source
Summary of the method: as §2

[13] = system: HCC1937; details: 72 h
Summary of the method: as §2

[14] = system: MDA-MB-436; details: 72 h
Summary of the method: as §2

[15] = system: Hs578T; details: 72 h
Summary of the method: as §2

[16] = system: MDA-MB-468; details: 72 h
Summary of the method: as §2

[17] = system: HCC1143; details: 72 h; remark: listed apart in the source
Summary of the method: as §2

[18] = system: MDA-MB-231; details: 72 h
Summary of the method: as §2

[19] = system: BT-474; details: 72 h
Summary of the method: as §2

[20] = system: MFM-223; details: 72 h; remark: listed apart in the source
Summary of the method: as §2

[21] = system: SK-BR-3; details: 72 h
Summary of the method: as §2

[22] = system: BT-549; details: 72 h
Summary of the method: as §2

[23] = system: CAL-120; details: 72 h
Summary of the method: as §2

[24] = system: CAL-148; test: drug sensitivity score (DSS), CellTiter-Blue viability (DSS (AUC-based score)); higher = stronger viability inhibition; extreme values may be limits of the assay; details: incubation time: 72 h
Experimental: (§3)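 DSRT with the CellTiter-Blue (resazurin reduction) viability readout, fluorescence 560/590 nm, 72 h incubation. Plates were normalised to DMSO and benzethonium chloride controls. DSS is computed from the area under the fitted dose-response curve (5 or 9 concentrations).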

[25] = system: MDA-MB-231; test: as above; details: incubation time: 72 h
Experimental: as §3

[26] = system: CAL-85-1; details: 72 h; remark: listed apart in the source
Experimental: (§4)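 Drug sensitivity and resistance testing (DSRT) of breast cancer cell lines in 384-well plates, 5 concentrations in 10-fold dilutions over a compound-specific 10,000-fold range. After 72 h, cytotoxicity was read by CellTox Green fluorescence and viability by CellTiter-Glo luminescence (multiplexed), normalised to DMSO and benzethonium chloride controls. EC50 is the inflection point of the fitted dose-response curve (bottom asymptote free, so it can be relative for partial curves) and is censored at the highest tested concentration. Rows with DSS 0 (no meaningful response) were excluded.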

[27] = system: HCC1599; details: 72 h; remark: listed apart in the source
Experimental: as §4

[28] = system: Hs578T; details: 72 h; remark: listed apart in the source
Experimental: as §4

[29] = system: MDA-MB-468; details: 72 h; remark: listed apart in the source
Experimental: as §4

[30] = system: MDA-MB-231; details: 72 h; remark: listed apart in the source
Experimental: as §4

[31] = system: CAL-51; details: 72 h; remark: listed apart in the source
Experimental: as §4

[32] = system: BT-474; details: 72 h; remark: listed apart in the source
Experimental: as §4

[33] = system: MFM-223; details: 72 h; remark: listed apart in the source
Experimental: as §4

[34] = system: MCF-10A; details: 72 h
Experimental: as §4

[35] = system: BT-549; details: 72 h; remark: listed apart in the source
Experimental: as §4

[36] = system: MDA-MB-453; details: 72 h
Experimental: as §4

[37] = system: CAL-148; details: 72 h; remark: listed apart in the source
Experimental: as §4

[38] = system: MDA-MB-436; details: 72 h; remark: listed apart in the source
Experimental: as §4

[39] = system: HCC1143; details: 72 h; remark: listed apart in the source
Experimental: as §4

[40] = system: CAL-120; details: 72 h; remark: listed apart in the source
Experimental: as §4

[41] = system: HCC1937; details: 72 h; remark: listed apart in the source
Experimental: as §4

- EC50, CellTiter-Glo [1]: 11.1 nM
- EC50, CellTiter-Glo [3]: 3.31 nM
- EC50, CellTiter-Blue viability [12]: 27.7 nM
- EC50, CellTiter-Blue viability [13]: 3.57 nM
- EC50, CellTiter-Blue viability [14]: 8.21 nM
- EC50, CellTiter-Blue viability [16]: 0.6 nM
- EC50, CellTiter-Blue viability [17]: 1.62 nM
- EC50, CellTiter-Blue viability [18]: 2.49 nM
- EC50, CellTiter-Blue viability [19]: 0.3 nM
- EC50, CellTiter-Blue viability [21]: 0.608 nM
- EC50, CellTiter-Blue viability [22]: 3.8 nM
SMILES: CC[C@]1(O)C[C@H]2CN(CCc3c([nH]c4ccccc34)[C@@](C(=O)OC)(c3cc4c(cc3OC)N(C=O)[C@H]3[C@@](O)(C(=O)OC)[C@H](OC(C)=O)[C@]5(CC)C=CCN6CC[C@]43[C@@H]65)C2)C1 [Vincristine]
- EC50, CellTiter-Glo [2]: 6.48 nM
- EC50, CellTiter-Glo [4]: 2.22 nM
- EC50, CellTiter-Glo [5]: 19.9 nM
- EC50, CellTiter-Glo [6]: 157 nM
- EC50, CellTiter-Blue viability [7]: 5.33 nM
- EC50, CellTiter-Blue viability [8]: 8.72 nM
- EC50, CellTiter-Blue viability [9]: 26.7 nM
- EC50, CellTiter-Blue viability [10]: 11.2 nM
- EC50, CellTiter-Blue viability [11]: 17.9 nM
- EC50, CellTiter-Blue viability [15]: 2.72 nM
- EC50, CellTiter-Blue viability [20]: 16.9 nM
- EC50, CellTiter-Blue viability [23]: 1 nM
- drug sensitivity score [24]: 23 and 26.8
- drug sensitivity score [25]: 27 and 34.4
- EC50, CellTox Green [26]: 2.39 nM
- EC50, CellTox Green [27]: 489 nM
- EC50, CellTox Green [28]: 85.1 nM
- EC50, CellTox Green [29]: 9.6 nM
- EC50, CellTox Green [30]: 5.49 nM
- EC50, CellTox Green [31]: 28.1 nM
- EC50, CellTox Green [32]: 4.19 nM
- EC50, CellTox Green [33]: 20 nM
- EC50, CellTox Green [34]: 4.1 nM
- EC50, CellTox Green [35]: 9.1 nM

SMILES: Cc1ccc(NC(=O)c2ccc(CN3CCN(C)CC3)cc2)cc1Nc1nccc(-c2cccnc2)n1 [Imatinib]
- drug sensitivity score [24]: 0
- drug sensitivity score [25]: 0
- EC50, CellTox Green [28]: > 10000 nM
- EC50, CellTox Green [36]: 2820 nM

SMILES: Nc1ncnc2c1c(COc1cccc(Cl)c1)nn2C1CCOCC1
- EC50, CellTox Green [28]: > 10000 nM

SMILES: COc1ccccc1S(=O)(=O)Nc1ccc2c(c1)CN(C)C(=O)N2 [PFI-1]
- EC50, CellTiter-Glo [5]: 3190 nM
- EC50, CellTiter-Glo [6]: 2670 nM
- EC50, CellTox Green [26]: 9560 nM

SMILES: CNNCc1ccc(C(=O)NC(C)C)cc1 [Procarbazine]
- drug sensitivity score [24]: 0
- drug sensitivity score [25]: 0

SMILES: C/C(=C\c1csc(C)n1)[C@@H]1C[C@@H]2O[C@]2(C)CCC[C@H](C)[C@H](O)[C@@H](C)C(=O)C(C)(C)[C@@H](O)CC(=O)O1 [Patupilone]
- EC50, CellTiter-Glo [1]: 584 nM
- EC50, CellTiter-Glo [2]: 30 nM
- EC50, CellTiter-Glo [3]: 18.9 nM
- EC50, CellTiter-Glo [4]: 66.7 nM
- EC50, CellTiter-Glo [5]: 156 nM
- EC50, CellTiter-Glo [6]: 93.8 nM
- EC50, CellTiter-Blue viability [7]: 1.56 nM
- EC50, CellTiter-Blue viability [8]: 3.13 nM
- EC50, CellTiter-Blue viability [9]: 11.4 nM
- EC50, CellTiter-Blue viability [10]: 16.5 nM
- EC50, CellTiter-Blue viability [11]: 11.1 nM
- EC50, CellTiter-Blue viability [12]: 211 nM
- EC50, CellTiter-Blue viability [13]: 2.26 nM
- EC50, CellTiter-Blue viability [14]: 7.26 nM
- EC50, CellTiter-Blue viability [15]: 6.7 nM
- EC50, CellTiter-Blue viability [16]: 2.77 nM
- EC50, CellTiter-Blue viability [17]: 9.87 nM
- EC50, CellTiter-Blue viability [18]: 0.95 nM
- EC50, CellTiter-Blue viability [19]: 10.9 nM
- EC50, CellTiter-Blue viability [20]: 13 nM
- EC50, CellTiter-Blue viability [21]: 5.58 nM
- EC50, CellTiter-Blue viability [22]: 4.38 nM
- EC50, CellTiter-Blue viability [23]: 8.13 nM
- drug sensitivity score [24]: 24.8
- drug sensitivity score [25]: 28.5
- EC50, CellTox Green [26]: 53.3 nM
- EC50, CellTox Green [37]: 34.8 nM
- EC50, CellTox Green [38]: 8.93 nM
- EC50, CellTox Green [28]: 206 nM
- EC50, CellTox Green [29]: 1.67 nM
- EC50, CellTox Green [39]: 596 nM
- EC50, CellTox Green [30]: 136 nM
- EC50, CellTox Green [31]: 2.63 nM
- EC50, CellTox Green [32]: 35.1 nM
- EC50, CellTox Green [33]: 609 nM
- EC50, CellTox Green [34]: 145 nM
- EC50, CellTox Green [40]: 162 nM

- EC50, CellTiter-Glo [3]: 17.9 nM
SMILES: Cn1c(=O)n(-c2ccc(C(C)(C)C#N)cc2)c2c3cc(-c4cnc5ccccc5c4)ccc3ncc21 [Dactolisib]
- EC50, CellTiter-Glo [2]: 18.7 nM
- EC50, CellTiter-Glo [4]: 12.8 nM
- EC50, CellTiter-Glo [5]: 14.8 nM
- EC50, CellTiter-Glo [6]: 42.8 nM
- EC50, CellTox Green [26]: 197 nM
- EC50, CellTox Green [37]: 100 nM
- EC50, CellTox Green [41]: 80.7 nM
- EC50, CellTox Green [33]: 579 nM
